Data taken from US7989469B2, “Certain chemical entities, compositions, and methods” (Cytokinetics, Incorporated, priority 2008, dated 2011).

What follows are molecules tested on rabbit skeletal muscle myofibril preparations (approximately 90% fast fibers) (assay: Activation of fast skeletal muscle fibers: enzymatic activity of myofibril preparations (PUMA assay system)). Conditions: detergent treated myofibrils at pCa25%, 500 μM ATP; cells marked †: Mean value.
Format: biochemical
Set-up: unit not given here
From the text: Fast fiber activators were identified by measuring the enzymatic activity of muscle myofibril preparations using the proprietary PUMA™ (see, e.g., U.S. Pat. Nos. 6,410,254, 6,743,599, 7,202,051, and 7,378,254) assay system. Myofibril preparations consisted of rabbit skeletal muscle (approximately 90% fast fibers) that had been treated with a detergen (triton X-100) to remove cellular membranes and then homogenized. This preparation retained all of the sarcomeric components in a native conformation and the enzymatic activity was still regulated by calcium. Compounds were tested using a myofibril suspension and a level of calcium sufficient to increase enzymatic activity of the myofibrils to 25% of their maximal rate (termed pCa25%). Enzymatic activity was tracked via a kinetic assay with a UV absorption readout. Hits were identified as compounds that increased the rate of enzymatic activity by greater than 40% at 40 μM. Myofibril preparations are calcium regulated and were screened at a level of calcium sufficient to produce a 25% increase in enzymatic rate. Detergent treated myofibrils were incubated with 500 μM ATP and 40 μM compound and a kinetic read of UV absorbance performed. Data was normalized to control wells.

| Molecule | AC1.4 Median |
| --- | --- |
| CC(C)C[C@@H](CO)n1c(O)nc2ncc(Cl)c(-c3ccc(F)cc3)c21 [1-[(1S)-2-hydroxy-1-(2-methylpropyl)ethyl]-6-chloro-7-(4-fluorophenyl)imidazo[4,5-b]pyridin-2-ol] | 0.072† |
| CCC(CC)n1c(O)nc2ncc(Cl)c(-c3ccc(C#N)c(F)c3)c21 [4-(6-chloro-2-hydroxy-1-(pentan-3-yl)-1H-imidazo[4,5-b]pyridin-7-yl)-2-fluorobenzonitrile] | 0.458† |
| CCC(CC)n1c(O)nc2ncc(Cl)c(-c3cccs3)c21 [6-chloro-1-(ethylpropyl)-7-(2-thienyl)imidazo[4,5-b]pyridin-2-ol] | 0.136† |
| CCC(CC)n1c(O)nc2ncc(Cl)c(-c3ccsc3)c21 [6-chloro-1-(ethylpropyl)-7-(3-thienyl)imidazo[4,5-b]pyridin-2-ol] | 0.124† |
| CCC(CC)n1c(O)nc2ncc(Cl)c(-c3ccccc3)c21 [6-chloro-1-(ethylpropyl)-7-phenylimidazo[4,5-b]pyridin-2-ol] | 0.110† |
| CC(C)n1c(O)nc2ncc(Cl)c(-c3ccc(F)cc3)c21 [6-chloro-7-(4-fluorophenyl)-1-(methylethyl)imidazo[4,5-b]pyridin-2-ol] | 0.096† |
| CC[C@H](COC(C)=O)c1nc2nc(O)[nH]c2c(-c2ccc(F)cc2)c1Cl [(2S)-2-[6-chloro-7-(4-fluorophenyl)-2-hydroxyimidazo[4,5-b]pyridinyl]butyl acetate] | 0.234† |

Same assay, conditions: detergent treated myofibrils at pCa25%, 500 μM ATP; median value (no †)

| Molecule | AC1.4 Median |
| --- | --- |
| CC[C@@H](COC)n1c(O)nc2ncc(Cl)c(-c3ccc(F)cc3)c21 [1-[(1S)-1-(methoxymethyl)propyl]-6-chloro-7-(4-fluorophenyl)imidazo[4,5-b]pyridin-2-ol] | 0.317 |
| CC[C@@H](COC)n1c(O)nc2ncc(Cl)c(-c3ccc(F)cn3)c21 [1-[(1S)-1-(methoxymethyl)propyl]-6-chloro-7-(5-fluoro(2-pyridyl))imidazo[4,5-b]pyridin-2-ol] | 3.771 |
| CCC(CC)n1c(O)nc2ncc(Cl)c(-c3ccccc3C=O)c21 [2-[6-chloro-1-(ethylpropyl)-2-hydroxyimidazo[4,5-b]pyridin-7-yl]benzaldehyde] | 1.689 |
| CCC(CC)n1c(O)nc2ncc(Cl)c(-c3ccccc3C(=O)O)c21 [2-[6-chloro-1-(ethylpropyl)-2-hydroxyimidazo[4,5-b]pyridin-7-yl]benzoic acid] | 30.881 |
| CCC(COP(=O)(O)O)c1nc2nc(O)[nH]c2c(-c2ccc(F)c(F)c2)c1Cl (stereo not shown) [2-[7-(3,4-difluorophenyl)-6-chloro-2-hydroxyimidazo[4,5-b]pyridinyl]butyl dihydrogen phosphate] | 44.713 |
| CC[C@H](c1nc2nc(O)[nH]c2c(-c2ccc(F)cc2)c1Cl)C(CO)CO [2-{(1S)-1-[6-chloro-7-(4-fluorophenyl)-2-hydroxyimidazo[4,5-b]pyridinyl]propyl}propane-1,3-diol] | 4.6812 |
| CCC(CC)n1c(O)nc2ncc(Cl)c(-c3cccc(C=O)c3)c21 [3-[6-chloro-1-(ethylpropyl)-2-hydroxyimidazo[4,5-b]pyridin-7-yl]benzaldehyde] | 1.943 |
| CCC(CC)n1c(O)nc2ncc(Cl)c(-c3ccnc(C#N)c3)c21 [4-(6-chloro-2-hydroxy-1-(pentan-3-yl)-1H-imidazo[4,5-b]pyridin-7-yl)picolinonitrile] | 9.842 |
| CC[C@@H](CO)n1c(O)nc2ncc(Cl)c(-c3ccc(C#N)cc3)c21 [4-[1-((1S)-1-ethyl-2-hydroxyethyl)-6-chloro-2-hydroxyimidazo[4,5-b]pyridin-7-yl]benzenecarbonitrile] | 3.249 |
| OCCn1c(O)nc2ncc(Cl)c(-c3ccccc3)c21 [6-chloro-1-(2-hydroxyethyl)-7-phenylimidazo[4,5-b]pyridin-2-ol] | 34.551 |
| CCC(C)n1c(O)nc2ncc(Cl)c(-n3cccn3)c21 (stereo not shown) [6-chloro-1-(methylpropyl)-7-pyrazolylimidazo[4,5-b]pyridin-2-ol] | 1.3927 |
| COCC(COC)n1c(O)nc2ncc(Cl)c(-n3cccn3)c21 [6-chloro-1-[2-methoxy-1-(methoxymethyl)ethyl]-7-pyrazolylimidazo[4,5-b]pyridin-2-ol] | 27.9068 |
| Oc1nc2ncc(Cl)c(-c3ccc(F)cc3)c2n1C1CCCC1 [6-chloro-1-cyclopentyl-7-(4-fluorophenyl)imidazo[4,5-b]pyridin-2-ol] | 1.677 |
| CC(C)(CO)n1c(O)nc2ncc(Cl)c(-c3ccc(F)cc3)c21 [6-chloro-7-(4-fluorophenyl)-1-(2-hydroxy-tert-butyl)imidazo[4,5-b]pyridin-2-ol] | 0.760 |
| OCCCn1c(O)nc2ncc(Cl)c(-c3ccc(F)cc3)c21 [6-chloro-7-(4-fluorophenyl)-1-(3-hydroxypropyl)imidazo[4,5-b]pyridin-2-ol] | 7.015 |
| CC(C)CC(CO)n1c(O)nc2ncc(Cl)c(-c3ccc(F)cc3)c21 (stereo not shown) [6-chloro-7-(4-fluorophenyl)-1-[2-hydroxy-1-(2-methylpropyl)ethyl]imidazo[4,5-b]pyridin-2-ol] | 0.210 |
| Cn1c(O)nc2ncc(Cl)c(-c3ccc(F)cc3)c21 [6-chloro-7-(4-fluorophenyl)-1-methylimidazo[4,5-b]pyridin-2-ol] | 12.620 |
| C=CCn1c(O)nc2ncc(Cl)c(-c3ccc(F)cc3)c21 [6-chloro-7-(4-fluorophenyl)-1-prop-2-enylimidazo[4,5-b]pyridin-2-ol] | 1.947 |
| CC[C@H](COP(=O)(O)O)c1nc2nc(O)[nH]c2c(-c2ccc(F)cc2)c1Cl [(2S)-2-[6-chloro-7-(4-fluorophenyl)-2-hydroxyimidazo[4,5-b]pyridinyl]butyl dihydrogen phosphate] | 31.644 |
| CC[C@H](COC(=O)[C@@H](N)C(C)C)c1nc2nc(O)[nH]c2c(-c2ccc(F)c(F)c2)c1Cl [(2S)-2-[7-(3,4-difluorophenyl)-6-chloro-2-hydroxyimidazo[4,5-b]pyridinyl]butyl (2S)-2-amino-3-methylbutanoate] | 6.640 |
| CC[C@H](CNC(C)=O)c1nc2nc(O)[nH]c2c(-c2ccc(F)cc2)c1Cl [N-{(2R)-2-[6-chloro-7-(4-fluorophenyl)-2-hydroxyimidazo[4,5-b]pyridinyl]butyl}acetamide] | 15.6039 |
| CC[C@@H](CNC(C)=O)c1nc2nc(O)[nH]c2c(-c2ccc(F)cc2)c1Cl [N-{(2S)-2-[6-chloro-7-(4-fluorophenyl)-2-hydroxyimidazo[4,5-b]pyridinyl]butyl}acetamide] | 8.4925 |
| (tert-butoxy)-N-{4-[6-chloro-1-(ethylpropyl)-2-hydroxyimidazo[4,5-b]pyridin-7-yl]phenyl}-N-methylcarboxamide | 42.343 |
| N-{4-[6-chloro-1-(ethylpropyl)-2-hydroxyimidazo[4,5-b]pyridin-7-yl]phenyl}acetamide | 28.930 |
| methyl 3-[6-chloro-1-(ethylpropyl)-2-hydroxyimidazo[4,5-b]pyridin-7-yl]benzoate | 9.682 |
| {3-[6-chloro-1-(ethylpropyl)-2-hydroxyimidazo[4,5-b]pyridin-7-yl]phenyl}-N,N-dimethylcarboxamide | 21.245 |
| {4-[6-chloro-1-(ethylpropyl)-2-hydroxyimidazo[4,5-b]pyridin-7-yl]phenyl}(methylsulfonyl)amine | 26.368 |
